These compounds were tested against T1, TRAP1 enzyme (Homo sapiens, UniProt Q12931) (assay: ADP Glo assay of TRAP1 ATPase activity). Conditions: 1 h; compound concentration 50 μM; read-out: ADP-Glo Percent Activation at 50 μM.
T1 construct: 150 nM Trap1 enzyme was incubated with various concentrations of the test compound
T1 sequence (Q12931 60-704): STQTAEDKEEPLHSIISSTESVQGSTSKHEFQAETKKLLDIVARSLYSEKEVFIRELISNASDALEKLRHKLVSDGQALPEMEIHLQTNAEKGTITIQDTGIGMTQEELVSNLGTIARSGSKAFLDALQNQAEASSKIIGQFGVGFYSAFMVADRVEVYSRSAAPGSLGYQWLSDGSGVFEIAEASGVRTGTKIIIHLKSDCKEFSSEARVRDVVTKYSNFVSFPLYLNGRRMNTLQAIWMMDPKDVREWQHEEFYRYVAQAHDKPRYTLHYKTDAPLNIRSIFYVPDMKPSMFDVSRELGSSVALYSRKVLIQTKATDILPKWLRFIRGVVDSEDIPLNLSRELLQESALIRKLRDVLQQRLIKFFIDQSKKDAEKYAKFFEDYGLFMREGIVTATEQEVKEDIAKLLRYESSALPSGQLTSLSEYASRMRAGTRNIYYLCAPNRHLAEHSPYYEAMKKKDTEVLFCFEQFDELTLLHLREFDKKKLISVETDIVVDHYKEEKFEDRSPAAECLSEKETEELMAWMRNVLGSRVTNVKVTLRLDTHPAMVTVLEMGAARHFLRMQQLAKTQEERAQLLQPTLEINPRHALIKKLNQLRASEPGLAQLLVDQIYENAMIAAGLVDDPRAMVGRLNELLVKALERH
Assay type: biochemical
Method in brief: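 Compound (0.79–100 μM) was preincubated 30 min at 37° C with 150 nM TRAP1 in 25 mM Pipes pH 7.5, 40 mM KCl, 0.05 mM MgCl2. Reaction started with 20 μM ATP, 60 min at 37° C. ADP measured by luminescence against a standard curve; activation fitted sigmoidally for EC50 and Emax.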

SMILES	activation at 50 µM [%]
COc1ncc(NC(=O)c2cc(C)n(C)n2)cc1S(=O)(=O)Nc1c(C)cccc1C [compound 2564]	120 to 150
COc1ncc(NC(=O)c2ccn3ncnc3c2)cc1S(=O)(=O)Nc1c(C)cccc1C [compound 2567]	120 to 150
COc1ncc(NC(=O)c2cnsn2)cc1S(=O)(=O)Nc1c(C)cccc1C [compound 2569]	120 to 150
COc1ncc(NC(=O)c2ncn(C)c2C)cc1S(=O)(=O)Nc1c(C)cccc1C [compound 2571]	151 to 180
COc1cc(C(=O)Nc2cnc(OC)c(S(=O)(=O)Nc3c(C)cccc3C)c2)ccn1 [compound 2575]	151 to 180
COc1ncc(NC(=O)c2ccc(S(C)(=O)=O)cc2)cc1S(=O)(=O)Nc1c(C)cccc1C [compound 2580]	120 to 150
COc1ncc(NC(=O)c2c(C)nn(C)c2Cl)cc1S(=O)(=O)Nc1c(C)cccc1C [compound 2582]	120 to 150
COc1ncc(NC(=O)c2ccc(S(=O)(=O)N(C)C)cc2)cc1S(=O)(=O)Nc1c(C)cccc1C [compound 2593]	151 to 180
COc1ncc(NC(=O)c2nc3c(s2)CN(C)CC3)cc1S(=O)(=O)Nc1c(C)cccc1C [compound 2594]	151 to 180
COc1ncc(NC(=O)c2ccsn2)cc1S(=O)(=O)Nc1c(C)cccc1C [compound 2595]	120 to 150
CCc1cc(C(=O)Nc2cnc(OC)c(S(=O)(=O)Nc3c(C)cccc3C)c2)n(C)n1 [compound 2600]	151 to 180
COc1ncc(NC(=O)c2ccn(C(C)C)n2)cc1S(=O)(=O)Nc1c(C)cccc1C [compound 2601]	181 to 352
COc1ncc(NC(=O)c2cc(C)nn2C)cc1S(=O)(=O)Nc1c(C)cccc1C [compound 2607]	120 to 150
COc1ncc(NC(=O)c2cn(C)nc2C(F)(F)F)cc1S(=O)(=O)Nc1c(C)cccc1C [compound 2608]	151 to 180
CCn1nc(C)cc1C(=O)Nc1cnc(OC)c(S(=O)(=O)Nc2c(C)cccc2C)c1 [compound 2609]	181 to 352
COc1ncc(NC(=O)c2ncn(C(C)C)n2)cc1S(=O)(=O)Nc1c(C)cccc1C [compound 2611]	120 to 150
COc1ncc(NC(=O)c2nn(C)c3c2CCC3)cc1S(=O)(=O)Nc1c(C)cccc1C [compound 2612]	151 to 180
COc1ncc(NC(=O)c2cccc(C(=O)N(C)C)c2)cc1S(=O)(=O)Nc1c(C)cccc1C [compound 2613]	151 to 180

SMILES	activation at 50 µM [%]
COc1ncc(NC(=O)c2cc(C(F)(F)F)nn2C)cc1S(=O)(=O)Nc1c(C)cccc1C [compound 2614]	120 to 150
COc1ncc(NC(=O)c2snnc2C)cc1S(=O)(=O)Nc1c(C)cccc1C [compound 2615]	120 to 150
CCCc1cc(C(=O)Nc2cnc(OC)c(S(=O)(=O)Nc3c(C)cccc3C)c2)nn1C [compound 2618]	181 to 352
CCn1ccc(C(=O)Nc2cnc(OC)c(S(=O)(=O)Nc3c(C)cccc3C)c2)n1 [compound 2619]	120 to 150
COc1ncc(NC(=O)c2nn(C)cc2F)cc1S(=O)(=O)Nc1c(C)cccc1C [compound 2624]	151 to 180
CCCc1cc(C(=O)Nc2cnc(OC)c(S(=O)(=O)Nc3c(C)cccc3C)c2)n(C)n1 [compound 2626]	181 to 352
COc1cc(C(=O)Nc2cnc(OC)c(S(=O)(=O)Nc3c(C)cccc3C)c2)n(C)n1 [compound 2627]	151 to 180
COc1ncc(NC(=O)c2nc(C)cs2)cc1S(=O)(=O)Nc1c(C)cccc1C [compound 2629]	181 to 352
CCn1cncc1C(=O)Nc1cnc(OC)c(S(=O)(=O)Nc2c(C)cccc2C)c1 [compound 2630]	120 to 150
COc1ncc(NC(=O)c2cncn2C)cc1S(=O)(=O)Nc1c(C)cccc1C [compound 2632]	120 to 150
COc1ncc(NC(=O)c2cnsc2)cc1S(=O)(=O)Nc1c(C)cccc1C [compound 2636]	120 to 150
COc1ncc(NC(=O)c2cnn(C(F)(F)F)c2)cc1S(=O)(=O)Nc1c(C)cccc1C [compound 2637]	120 to 150
COc1ncc(NC(=O)c2cnn(C(C)C)c2)cc1S(=O)(=O)Nc1c(C)cccc1C [compound 2639]	151 to 180
COc1ncc(NC(=O)c2ccc(S(=O)(=O)C(F)F)cc2)cc1S(=O)(=O)Nc1c(C)cccc1C [compound 2640]	151 to 180
COc1ncc(NC(=O)c2ccnc(N(C)C)n2)cc1S(=O)(=O)Nc1c(C)cccc1C [compound 2641]	181 to 352
CCN(CC)S(=O)(=O)c1ccc(C(=O)Nc2cnc(OC)c(S(=O)(=O)Nc3c(C)cccc3C)c2)cc1 [compound 2642]	151 to 180
COc1ncc(NC(=O)c2nn(C)cc2C)cc1S(=O)(=O)Nc1c(C)cccc1C [compound 2643]	181 to 352

Continued, values first:

activation at 50 µM [%]	SMILES
120 to 150	COc1ncc(NC(=O)c2ccccc2CN(C)C)cc1S(=O)(=O)Nc1c(C)cccc1C [compound 2566]
181 to 352	COc1ncc(NC(=O)c2ccc(OC3COC3)cc2)cc1S(=O)(=O)Nc1c(C)cccc1C [compound 2568]
181 to 352	COc1ncc(NC(=O)c2ccc(CN3CCOCC3)cc2)cc1S(=O)(=O)Nc1c(C)cccc1C [compound 2570]
181 to 352	COc1ncc(NC(=O)c2cccc(CN3CCOCC3)c2)cc1S(=O)(=O)Nc1c(C)cccc1C [compound 2572]
151 to 180	COc1ncc(NC(=O)c2cc3n(n2)CCCC3)cc1S(=O)(=O)Nc1c(C)cccc1C [compound 2573]
151 to 180	COc1ncc(NC(=O)c2cccc3c2CCCC3)cc1S(=O)(=O)Nc1c(C)cccc1C [compound 2574]
181 to 352	COc1ncc(NC(=O)c2ccc3c(c2)OCCN3C)cc1S(=O)(=O)Nc1c(C)cccc1C [compound 2576]
120 to 150	COc1ncc(NC(=O)c2cnn3c2OCCC3)cc1S(=O)(=O)Nc1c(C)cccc1C [compound 2577]
181 to 352	COc1ncc(NC(=O)c2ccc(N3CCN(C)CC3)cc2)cc1S(=O)(=O)Nc1c(C)cccc1C [compound 2578]
151 to 180	COc1ncc(NC(=O)c2ccccc2[S@+](C)[O-])cc1S(=O)(=O)Nc1c(C)cccc1C [compound 2581]
181 to 352	COc1cccc(C(=O)Nc2cnc(OC)c(S(=O)(=O)Nc3c(C)cccc3C)c2)n1 [compound 2583]
181 to 352	COc1ncc(NC(=O)c2cccc(N3CCOCC3)n2)cc1S(=O)(=O)Nc1c(C)cccc1C [compound 2584]
120 to 150	COc1ncc(NC(=O)c2ccn(C)n2)cc1S(=O)(=O)Nc1c(C)cccc1C [compound 2586]
120 to 150	COc1ncc(NC(=O)c2cnn(C3CCOCC3)c2)cc1S(=O)(=O)Nc1c(C)cccc1C [compound 2587]
181 to 352	COc1ncc(NC(=O)c2ccc(N3CCOCC3)cc2F)cc1S(=O)(=O)Nc1c(C)cccc1C [compound 2590]
151 to 180	COc1ncc(NC(=O)c2cccc(CN3CCCC3)c2)cc1S(=O)(=O)Nc1c(C)cccc1C [compound 2591]
181 to 352	COc1ncc(NC(=O)c2ccc(C(C)=O)cc2)cc1S(=O)(=O)Nc1c(C)cccc1C [compound 2597]
181 to 352	COc1ncc(NC(=O)c2cccc(CN3CCCCC3)c2)cc1S(=O)(=O)Nc1c(C)cccc1C [compound 2599]
151 to 180	COc1ncc(NC(=O)c2ccccc2N2CCOCC2)cc1S(=O)(=O)Nc1c(C)cccc1C [compound 2602]
120 to 150	COc1ncc(NC(=O)c2ccns2)cc1S(=O)(=O)Nc1c(C)cccc1C [compound 2617]
151 to 180	COc1ncc(NC(=O)c2cccc3c2CCC3)cc1S(=O)(=O)Nc1c(C)cccc1C [compound 2621]
120 to 150	COc1ncc(NC(=O)c2cncc(N3CCCCC3)c2)cc1S(=O)(=O)Nc1c(C)cccc1C [compound 2622]
181 to 352	COc1ncc(NC(=O)c2cccn3cnnc23)cc1S(=O)(=O)Nc1c(C)cccc1C [compound 2625]
120 to 150	COc1ncc(NC(=O)c2cn(C)nc2C)cc1S(=O)(=O)Nc1c(C)cccc1C [compound 2628]
151 to 180	COc1ncc(NC(=O)c2cccc(CN(C)C)c2)cc1S(=O)(=O)Nc1c(C)cccc1C [compound 2631]
181 to 352	COc1ncc(NC(=O)c2cccc(N3CCN(C)CC3)c2)cc1S(=O)(=O)Nc1c(C)cccc1C [compound 2633]
181 to 352	COc1ncc(NC(=O)c2ccccc2CN2CCOCC2)cc1S(=O)(=O)Nc1c(C)cccc1C [compound 2634]
181 to 352	COc1ncc(NC(=O)c2cccc3c2CC(=O)N3)cc1S(=O)(=O)Nc1c(C)cccc1C [compound 2635]
151 to 180	COc1ncc(NC(=O)c2cnn(C)c2Cl)cc1S(=O)(=O)Nc1c(C)cccc1C [compound 2638]

— patent US20230159509A1 (Amathus Therapeutics, Inc., priority 2020, published 2023)
